Experimental data from patent US7608712B2, “Pyridine imidazoles and aza-indoles as progesterone receptor modulators” (Janssen Pharmaceutica N.V., priority 2004, dated 2009).
Like-named read-outs stand apart in the source and are kept apart here.

System: T47D human breast cancer cells
Assay: T47D alkaline phosphatase assay (In Vitro Test)
Type: cell-based
Details: for % inh.: Table 3, test concentration not given; for inhibition at 3 µM / inhibition at 10 µM: read-out: % inh.
Procedure: T47D human breast cancer cells are grown in RPMI medium without phenol red (Invitrogen) containing 10% (v/v) heat-inactivated fetal bovine serum (FBS; Hyclone), 1% (v/v) penicillin-streptomycin (Invitrogen), 1% (w/v) glutamine (Invitrogen), and […] insulin (Sigma). Incubation conditions are 37 °C in a humidified 5% (v/v) carbon dioxide environment. For assay, the cells are plated in 96-well tissue culture plates at 10,000 cells per well in assay medium [RPMI medium without phenol red (Invitrogen) containing 5% (v/v) charcoal-treated FBS (Hyclone) and 1% (v/v) penicillin-streptomycin (Invitrogen)]. Two days later, the medium is decanted and the compounds are added in a final concentration of 0.1% (v/v) dimethyl sulfoxide in fresh assay medium. Twenty-four hours later, an alkaline phosphatase assay is performed using a SEAP kit (BD Biosciences Clontech, Palo Alto, Calif.). Briefly, the medium is decanted and the cells are fixed for 30 minutes at room temperature with 5% (v/v) formalin (Sigma). The cells are washed once with room temperature Hank's buffered saline solution (Invitrogen). Equal volumes (0.05 mL) of 1× Dilution Buffer, Assay Buffer and 1:20 substrate/enhancer mixture are added. After 1-hour incubation at room temperature in the dark, the lysate is transferred to a white 96-well plate (Dynex) and luminescence is read using a LuminoSkan Ascent (Thermo Electron, Woburn, Mass.).

CC1(C)C(=O)N=C2C=CC(Br)=CN21 [Example 1-C1, 6-Bromo-3,3-dimethyl-imidazo[1,2-a]pyridin-2-one] was tested, and the “% inh.” value was 53%.
For O=C1N=C2C=CC(Br)=CN2C12CCCC2 [Example 1-C2, 6-Bromo-3,3-spiro[cyclopentane]-imidazo[1,2-a]pyridin-2-one], the “% inh.” value was 35%.
CC1(C)C(=O)N=C2C=CC(c3cccc(Cl)c3)=CN21 [Example 2, 6-(3-Chloro-phenyl)-3,3-dimethyl-imidazo[1,2-a]pyridin-2-one] was tested, and the “% inh.” value was 15%.
For O=C1N=C2C=CC(c3cccc(Cl)c3)=CN2C12CCCCC2 [Example 3, 6-(3-chloro-phenyl)-3,3-spiro[cyclohexane]-imidazo[1,2-a]pyridin-2-one], the “% inh.” value was 104%.
CC1(C)C(=O)N=C2C=CC(c3cccc(C#N)c3)=CN21 [Example 4, 3-(3,3-Dimethyl-2-oxo-2,3-dihydro-imidazo[1,2-a]pyridin-6-yl)-benzonitrile] was tested, and the “% inh.” value was 19%.
In the case of CC1(C)C(=O)N=C2C=CC(Cl)=CN21 [Example 5, 6-Chloro-3,3-dimethyl-imidazo[1,2-a]pyridin-2-one], the “% inh.” value is reported as 31%.
With O=C1N=C2C=CC(Cl)=CN2C12CCCCC2 [Example 6, 6-Chloro-spiro[cyclohexane]-imidazo[1,2-a]pyridin-2-one] the “% inh.” value was 42%.
With CC1(C)C(=O)N=C2C=CC(c3cc(F)cc(F)c3)=CN21 [Example 7, 6-(3,5-Difluoro-phenyl)-3,3-dimethyl-imidazo[1,2-a]pyridin-2-one] the “% inh.” value was 40%.
CC1(C)C(=O)N=C2C=CC(c3cccc([N+](=O)[O-])c3)=CN21 [Example 8, 3,3-Dimethyl-6-(3-nitro-phenyl)-imidazo[1,2-a]pyridin-2-one] was tested, and the “% inh.” value was 33%.
For CC1(C)C(=O)N=C2C=CC(c3cccc(C(F)(F)F)c3)=CN21 [Example 9, 3,3-Dimethyl-6-(3-trifluoromethyl-phenyl)-imidazo[1,2-a]pyridin-2-one], the “% inh.” value was 17%.
CC1(C)C(=O)N=C2C=CC(c3ccc(F)cc3F)=CN21 [Example 10, 6-(2,4-Difluoro-phenyl)-3,3-dimethyl-imidazo[1,2-a]pyridin-2-one] was tested, and the “% inh.” value was 29%.
For CC1(C)C(=O)N=C2C=CC(c3cc(C(F)(F)F)cc(C(F)(F)F)c3)=CN21 [Example 11, 6-(3,5-Bis-trifluoromethyl-phenyl)-3,3-dimethyl-imidazo[1,2-a]pyridin-2-one], the “% inh.” value was 19%.
In the case of COc1cccc(C2=CN3C(=NC(=O)C3(C)C)C=C2)c1 [Example 12, 6-(3-Methoxy-phenyl)-3,3-dimethyl-imidazo[1,2-a]pyridin-2-one], the “% inh.” value is reported as 3.1%.
With CC1(C)C(=O)N=C2C=CC(c3cccc(F)c3)=CN21 [Example 13, 6-(3-Fluoro-phenyl)-3,3-dimethyl-imidazo[1,2-a]pyridin-2-one] the “% inh.” value was 14%.
With CC1(C)C(=O)N=C2C=CC(c3ccccc3Cl)=CN21 [Example 14, 6-(2-Chloro-phenyl)-3,3-dimethyl-imidazo[1,2-a]pyridin-2-one] the “% inh.” value was 0%.
For O=C1N=C2C=CC(c3cccc(F)c3)=CN2C12CCCCC2 [Example 15, 6-(3-Fluoro-phenyl)-3,3-spiro[cyclohexane]-imidazo[1,2-a]pyridin-2-one], the “% inh.” value was 0%.
With COc1cccc(C2=CN3C(=NC(=O)C34CCCCC4)C=C2)c1 [Example 16, 6-(3-Methoxy-phenyl)-3,3-spiro[cyclohexane]-imidazo[1,2-a]pyridin-2-one] the “% inh.” value was 01%.
O=C1N=C2C=CC(c3cc(C(F)(F)F)cc(C(F)(F)F)c3)=CN2C12CCCCC2 [Example 17, 6-(3,5-Bis-trifluoromethyl-phenyl)-3,3-spiro[cyclohexane]-imidazo[1,2-a]pyridin-2-one] was tested, and the “% inh.” value was 04%.
In the case of O=C1N=C2C=CC(c3cccc([N+](=O)[O-])c3)=CN2C12CCCCC2 [Example 18, 6-(3-nitro-phenyl)-3,3-spiro[cyclohexane]-imidazo[1,2-a]pyridin-2-one], the “% inh.” value is reported as 98%.
In the case of O=C1N=C2C=CC(c3cccc(C(F)(F)F)c3)=CN2C12CCCCC2 [Example 19, 6-(3-trifluoromethyl-phenyl)-3,3-spiro[cyclohexane]-imidazo[1,2-a]pyridin-2-one], the “% inh.” value is reported as 97%.
With N#Cc1cccc(C2=CN3C(=NC(=O)C34CCCCC4)C=C2)c1 [Example 20, 6-(3-cyano-phenyl)-3,3-spiro[cyclohexane]-imidazo[1,2-a]pyridin-2-one] the “% inh.” value was 96%.
With O=C1N=C2C=CC(c3cc(F)cc(F)c3)=CN2C12CCCCC2 [Example 21, 6-(3,5-Difluoro-phenyl)-3,3-spiro[cyclohexane]-imidazo[1,2-a]pyridin-2-one] the “% inh.” value was 99%.
For O=C1N=C2C=CC(c3ccc(Cl)c(Cl)c3)=CN2C12CCCCC2 [Example 22], the “% inh.” value was 88%.
With O=C1N=C2C=CC(c3ccc(F)cc3F)=CN2C12CCCCC2 [Example 23, 6-(2,4-Difluoro-phenyl)-3,3-spiro[cyclohexane]-imidazo[1,2-a]pyridin-2-one] the “% inh.” value was 96%.
With O=C1N=C2C=CC(c3cccc(Cl)c3)=CN2C12CCCC2 [Example 24, 6-(3-chloro-phenyl)-3,3-spiro[pentane]-imidazo[1,2-a]pyridin-2-one] the “% inh.” value was 1%.
For N#Cc1cccc(C2=CN3C(=NC(=O)C34CCCC4)C=C2)c1 [Example 25, 6-(3-cyano-phenyl)-3,3-spiro[pentane]-imidazo[1,2-a]pyridin-2-one], the “% inh.” value was 2%.
For O=C1N=C2C=CC(c3cccc(F)c3)=CN2C12CCCC2 [Example 26, 6-(3-Fluoro-phenyl)-3,3-spiro[pentane]-imidazo[1,2-a]pyridin-2-one], the “% inh.” value was 2%.
O=C1N=C2C=CC(c3cccc([N+](=O)[O-])c3)=CN2C12CCCC2 [Example 27, 6-(3-nitro-phenyl)-3,3-spiro[pentane]-imidazo[1,2-a]pyridin-2-one] was tested, and the “% inh.” value was 86%.
For O=C1N=C2C=CC(c3ccc(Cl)c(Cl)c3)=CN2C12CCCC2 [Example 28, 6-(3,4-Dichloro-phenyl)-3,3-spiro[pentane]-imidazo[1,2-a]pyridin-2-one], the EC50 (Homo sapiens, T47D, activation (footnote to Table 3)) was 1.95 µM and the “% inh.” value was 22%.
In the case of O=C1N=C2C=CC(c3cc(C(F)(F)F)cc(C(F)(F)F)c3)=CN2C12CCCC2 [Example 29, 6-(3,5-Bis-trifluoromethyl-phenyl)-3,3-spiro[pentane]-imidazo[1,2-a]pyridin-2-one], the “% inh.” value is reported as 25%.
In the case of O=C1N=C2C=CC(c3ccc(F)c(Cl)c3)=CN2C12CCCC2 [Example 30, 6-(3-Chloro-4-fluoro-phenyl)-3,3-spiro[pentane]-imidazo[1,2-a]pyridin-2-one], the “% inh.” value is reported as 21%.
CC1(C)C(=O)Nc2ncc(-c3cccc(F)c3)cc21 [Example 31, 5-(3-Fluoro-phenyl)-3,3-dimethyl-1,3-dihydro-pyrrolo[2,3-b]pyridin-2-one] showed an IC50 (Homo sapiens, T47D) of 4.48 µM, an inhibition at 3 µM (Homo sapiens, T47D) of 95% and an inhibition at 10 µM (Homo sapiens, T47D) of 92%.
With O=C1Nc2ncc(-c3cccc(F)c3)cc2C12CCCCC2 [Example 32, 5-(3-Fluoro-phenyl)-3,3-spiro[cyclohexane]-1,3-dihydro-pyrrolo[2,3-b]pyridin-2-one] the inhibition at 3 µM (Homo sapiens, T47D, @ 3 uM) was 58%, the inhibition at 10 µM (Homo sapiens, T47D, @ 10 uM) was 58% and the IC50 (Homo sapiens, T47D, Table 4, read-out: IC50) was 7.03 µM.
